This test has as its system U23674 (mouse alveolar rhabdomyosarcoma primary culture).
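Further: alveolar rhabdomyosarcoma tumor culture.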

In the case of `Fc1cccc(COc2ccc(Nc3ncnc4sc(-c5cccs5)cc34)cc2Cl)c1`, the IC50 cell viability was > 10 µM.
Then `Oc1[nH]c2ccccc2c1C=Nc1ccc(-n2cncn2)cc1`, with > 10 µM; and `COc1cc(N2CCN(C(C)C)CC2)ccc1Nc1nc(Nc2cccc3ncccc23)c2cc[nH]c2n1`, with > 10 µM.
Then `Cc1ccc(C(=O)NC2CCC2)cc1-c1ccc(C(=O)NCC2CC2)cc1`, with > 10 µM; and `COC(=O)Nc1nc2ccc(Oc3ccc(NC(=O)Nc4cc(C(F)(F)F)ccc4F)cc3)cc2s1`, with > 10 µM; and `CN1CCC(n2cnc(-c3ccc(F)cc3)c2-c2ccnc(N)n2)CC1`, with > 10 µM.
Take `COc1ccc(CNC(=O)c2ccc(-c3cc(-c4nnc(C)o4)ccc3C)cc2)cc1`: the IC50 cell viability is > 10 µM.
Then `COc1cc(/C=N/Nc2ncnc3[nH]ncc23)ccc1O`, with > 10 µM; and `O=C(Nc1n[nH]c2nc(-c3ccco3)ccc12)C1CC1`, with > 10 µM.
In the case of `O=C(Nc1n[nH]c2nnc(-c3cccnc3)cc12)C1CC1` it was > 10 µM.
In the case of `O=C(Nc1ccc(Oc2ccc3nc(NC(=O)c4ccccc4)[nH]c3c2)cc1)Nc1cc(C(F)(F)F)ccc1F` it was > 10 µM; in that of `CS(=O)(=O)CCNCc1ccc(-c2ccc3ncnc(Nc4ccc(OCc5ccccc5)c(Br)c4)c3c2)o1`, > 10 µM.
`O=C1Nc2ccc(I)cc2C1=Cc1cc(Br)c(O)c(Br)c1`: the IC50 cell viability was > 10 µM.
Then `O=C1Nc2ccccc2C1=C1CCc2cc(O)ccc21`, with > 10 µM; and `COc1cc2ncn(-c3cc(OCc4ccccc4C(F)(F)F)c(C(N)=O)s3)c2cc1OC`, with > 10 µM.
`COc1ccc(COc2ccc(Cc3cnc(N)nc3N)cc2OC)cc1`: the IC50 cell viability is > 10 µM.
On to `CCn1c(-c2nonc2N)nc2c(C#CCN)ncc(OCCCN)c21`, for which the IC50 cell viability is > 10 µM.
For the compound `Nc1nonc1-c1nc2cnccc2n1C1CC1`, the IC50 cell viability is > 10 µM.
Then `CNC(=O)c1cc(-c2ccc(F)cc2)cc(-c2ccc(S(=O)(=O)N3CCCC3)cc2)c1N`, with > 10 µM.
Then `COc1cccc(Nc2nccc(-c3cnn4ncccc34)n2)c1`, with 0.01 µM; and `COc1ccc(-c2ccc3c(NC(=O)C4CC4)n[nH]c3n2)cc1`, with > 10 µM; and `COc1cc(Nc2ncc(-c3ccccc3)o2)cc(OC)c1OC`, with > 10 µM.
Then `CS(=O)(=O)CCNCc1ccc(-c2ccc3ncnc(Nc4ccc(OCc5ccccc5)cc4)c3c2)o1`, with > 10 µM; and `NC(=O)c1ccc(Oc2nccc(-c3c(-c4ccc(F)cc4)ncn3C3CCNCC3)n2)cc1`, with > 10 µM; and `COc1ccc(Nc2ncc(-c3ccccc3)o2)cc1OC`, with > 10 µM.
As for `Fc1ccc(-c2ncn(CCCN3CCOCC3)c2-c2ccncc2)cc1`, the IC50 cell viability is > 10 µM.
Then `CCc1cccc(CC)c1/C=C/c1cncc(C(=O)NC)c1`, with > 10 µM; and `Cc1ccc2c(-c3ccnc(Nc4ccccc4)n3)c(-c3ccc(F)cc3)nn2n1`, with > 10 µM.
In the case of `Cc1nnc(-c2ccc(C)c(-c3ccc(C(=O)Nc4cccc(C#N)c4)cc3)c2)o1` it was > 10 µM; in that of `COc1cc(Nc2nccc(Nc3ccc4c(C)[nH]nc4c3)n2)cc(OC)c1OC`, 5.6 µM.
For the compound `Fc1ccc(-c2ncn(C3CCNCC3)c2-c2ccnc(Oc3ccc(Oc4ccccc4)cc3)n2)cc1`, the IC50 cell viability worked out at 2 µM.
As to `N#Cc1c(NC(=O)c2cccc3ccccc23)sc2c1CCCC2`, the IC50 cell viability was 3.5 µM.
In the case of `COc1c(C(N)=O)cc(-c2ccc(Cl)cc2)cc1-c1ccc(S(N)(=O)=O)cc1` it was > 10 µM; in that of `NC(=O)c1cccc(Nc2nccc(Nc3cccc(F)c3)n2)c1`, > 10 µM; in that of `NCc1ccc(-n2c(-c3nonc3N)nc3cnccc32)cc1`, 3.9 µM.
On to `Cc1ccc(-c2cc3c(NC(=O)C4CC4)ncnc3o2)cc1`, for which the IC50 cell viability is > 10 µM.
Then `CS(=O)(=O)CCNCc1nc(-c2ccc3ncnc(Nc4ccc(OCc5cccc(C(F)(F)F)c5)cc4)c3c2)cs1`, with > 10 µM; and `COc1ccc(-c2oc3ncnc(N)c3c2-c2ccc(NC(=O)Nc3cc(C(F)(F)F)ccc3F)cc2)cc1`, with > 10 µM.
In the case of `CN(C)CCOc1ccc(-c2cc(-c3ccc4c(c3)CCC4=NO)c(-c3ccncc3)o2)cc1` it was > 10 µM.
With `NS(=O)(=O)c1ccc(N=Cc2c(O)[nH]c3ccc4ncsc4c23)cc1`, the IC50 cell viability is > 10 µM.
In the case of `Fc1ccc(-c2ncn(C3CCNCC3)c2-c2ccnc(Oc3ccc(F)c(F)c3)n2)cc1` it was 6.2 µM.
In the case of `O=C(Nc1n[nH]c2cc(-c3cc(F)ccc3F)ccc12)C1CC1` it was > 10 µM; in that of `O=C1NC(=O)C(c2cccc(Cl)c2)=C1Nc1ccc(Cl)c(C(=O)O)c1`, > 10 µM.
In the case of `CC(C)c1ccc2c(N=Nc3ccc(S(N)(=O)=O)cc3)c(O)[nH]c2c1` it was > 10 µM; in that of `Fc1ccc(-c2nn3ccccc3c2-c2ccncc2)cc1`, > 10 µM.
For the compound `CCS(=O)(=O)c1ccc(OC)c(Nc2ncc(-c3cccc(-c4ccccc4F)c3)o2)c1`, the IC50 cell viability was > 10 µM.
In the case of `Cc1ccc(NC(=O)CC2CC2)cc1-c1ccc(C(=O)NCC2CC2)cc1` it was 3.4 µM; in that of `CCOc1ccc2c(-c3ccnc(Nc4cccc(C(F)(F)F)c4)n3)cnn2n1`, > 10 µM.
In the case of `CC1=C(C(=O)Nc2ccc3[nH]ncc3c2)C(c2ccc(F)cc2)NC(=O)N1` (configuration not stated), the IC50 cell viability is > 10 µM.
`COc1ccc(-c2nn3ncccc3c2-c2ccnc(Nc3cccc(C(F)(F)F)c3)n2)cc1`: the IC50 cell viability was > 10 µM.
Then `COc1cc2c(cc1Nc1nc(N3CCc4ccccc43)c3cc[nH]c3n1)N(C(=O)CN(C)C)CC2`, with 0.05 µM.
Take `COC(=O)Nc1nc2ccc(Sc3ccc(NC(=O)Nc4cc(C(F)(F)F)ccc4F)cc3)cc2[nH]1`: the IC50 cell viability was > 10 µM.
Then `O=C(Nc1n[nH]c2nc(-c3ccco3)c(Br)cc12)C1CC1`, with > 10 µM.
Then `CCn1c(-c2nonc2N)nc2c(C#CC(C)(C)O)ncc(OCC3CCNCC3)c21`, with > 10 µM.
In the case of `Cc1cc(O)cc(C)c1/C=C/c1cncc(C(N)=O)c1` it was > 10 µM; in that of `COc1ccc(-c2cc(-c3cn[nH]c3-c3ccccn3)ccn2)cc1`, > 10 µM; in that of `CS(=O)(=O)CCN(CC#N)Cc1ccc(-c2ccc3ncnc(Nc4ccc(OCc5cccc(F)c5)c(Cl)c4)c3c2)o1`, > 10 µM.
With `O=C1Nc2ccc(-c3cccnc3)cc2C1=Cc1cc(Br)c(O)c(Br)c1`, the IC50 cell viability was > 10 µM.
In the case of `CN(C)CCNC(=O)Nc1ccc(N(C)c2ccnc(Nc3ccc(CS(C)(=O)=O)cc3)n2)cc1` it was > 10 µM.
Then `CCS(=O)(=O)c1ccc(OC)c(Nc2ncc(-c3cccc(F)c3)o2)c1`, with > 10 µM; and `NS(=O)(=O)c1ccc(-c2cc3ccncc3cc2OCc2ccccc2)cc1`, with > 10 µM; and `CCN1CCC(C(=O)Nc2n[nH]c3nnc(-c4cccc(F)c4F)cc23)CC1`, with > 10 µM.
Then `CS(=O)(=O)Nc1ccc(-c2ccc3c(NC(=O)C4CC4)n[nH]c3c2)cc1`, with > 10 µM; and `NS(=O)(=O)c1ccc(N=Nc2c(O)[nH]c3ccc(C(=O)NCCc4cnc[nH]4)cc23)cc1`, with > 10 µM.
On to `c1ccc(Cc2nc3ccc(Nc4ncnc5ccccc45)cc3[nH]2)cc1`, for which the IC50 cell viability is > 10 µM.
Then `COc1cc2c(cc1Nc1nc(Nc3cccc(F)c3C(N)=O)c3cc[nH]c3n1)N(C(=O)CN1CCN(C(C)C)CC1)CC2`, with 3.2 µM; and `COC(=O)Nc1nc2ccc(Oc3ccc(NC(=O)Nc4cccc(Cl)c4)cc3)cc2[nH]1`, with > 10 µM; and `CCCN1CCC(c2ccc(Nc3nc(Nc4cc(F)ccc4C(N)=O)c4cc[nH]c4n3)c(OC)c2)CC1`, with > 10 µM.
Then `Nc1nc(-c2ccc3c(c2)C(=Cc2cc(Br)c(O)c(Br)c2)C(=O)N3)cs1`, with > 10 µM; and `COc1cc2ncn(-c3cc(OCc4ccccc4S(C)(=O)=O)c(C#N)s3)c2cc1OC`, with > 10 µM; and `NS(=O)(=O)c1cccc(Nc2cc(-c3ccc(F)cc3)[nH]n2)c1`, with > 10 µM.
Then `CC1=C(C(=O)Nc2cc(Cl)c3[nH]ncc3c2)C(c2ccc(C(F)(F)F)cc2)CC(=O)N1` (configuration not stated), with > 10 µM.
For `CN1CCN(Cc2ccc(-c3cc4ncnc(Nc5ccc(OCc6cccc(F)c6)c(Cl)c5)c4s3)o2)CC1`, the IC50 cell viability was > 10 µM.
In the case of `CCN1CCC(CC(=O)Nc2n[nH]c3nnc(-c4cccc(F)c4F)cc23)CC1` it was 5.1 µM.
As to `NS(=O)(=O)c1ccc(N=Nc2c(O)[nH]c3cccc(CCc4ccncc4)c23)cc1`, the IC50 cell viability is > 10 µM.
In the case of `COc1cccc(-n2ncc3c(N/N=C/c4ccc(S(C)(=O)=O)cc4)ncnc32)c1` it was > 10 µM.
Then `COc1cccc(-n2cnc3c(N/N=C/c4ccncc4)ncnc32)c1`, with > 10 µM; and `CCOc1nccc2c1nc(-c1nonc1N)n2CC`, with > 10 µM; and `Cc1nc(-c2ccccc2)n2nc(NCCCN3CCOCC3)ncc12`, with > 10 µM.
Then `Fc1ccc(-c2ncn(C3CCNCC3)c2-c2ccnc(Oc3ccccc3)n2)cc1`, with 3.3 µM; and `CCn1c(-c2nonc2N)nc2c(C#CC(C)(C)O)nc(OC[C@H](N)c3ccccc3)cc21`, with 1.6 µM.
Compound `CCCN1CCCC(c2ccc(Nc3nc(Nc4cc(F)ccc4C(N)=O)c4cc[nH]c4n3)c(OC)c2)C1` (configuration not stated) displayed an IC50 cell viability of 1.4 µM.
In the case of `NS(=O)(=O)c1ccc(N=Nc2c(O)[nH]c3ccc(-c4cnco4)cc23)cc1` it was > 10 µM; in that of `O=C1NC(=O)C(c2ccc(Cl)cc2)=C1Nc1ccc(Cl)c(C(=O)O)c1`, 3.9 µM; in that of `FC(F)(F)c1cccc(Nc2nccc(-c3cnn4nc(-c5ccccc5)ccc34)n2)c1`, > 10 µM.
In the case of `Nc1nonc1-c1nc2cnccc2n1C1CCCCC1` it was > 10 µM.
Then `CN(c1ccc(NC(=O)NCCN2CCOCC2)cc1)c1ccnc(Nc2ccc(CS(C)(=O)=O)cc2)n1`, with > 10 µM.
